Assays:
Type in all cases: in vivo
[1] = test system: Amaranthus retroflexus (AMARE); assay: Post-emergence herbicidal activity, AMARE; conditions: % visual injury compared to treatment control, 7 days after treatment
Protocol: (§1) Selected compounds of the invention were screened at 100 PPM against Amaranthus retroflexus (AMARE), Echinochloa crus-galli (ECHCG), Kochia scoparia (KCHSC), and Setaria italica (SETIT).
(§2) Accordingly, PPO susceptible weed seeds were sown in 5″×5″ pots by quadrant containing Miracle-Gro potting mix (Scotts Miracle-Gro Company, Marysville, OH, USA) and grown in a Conviron growth chamber with appropriate growth conditions (temperature of 26/22° C. with photoperiod 16/8 h light day/night and light intensity of 300 μmol m^−2s^−1 supplemented by LED lamps). Relative humidity in the growth chamber was maintained at around 65%. Plants were grown until 2-4 leaf stage and thinned to 5-8 plants per quadrant per species.
(§3) Compounds were formulated in 25% Acetone, 1% Crop oil concentrate (COC-Agridex), 0.1% Tween-20, and 2.5% Ammonium sulphate (AMS). Three replicate pots were treated with each compound. Treatment consisting of the above formulation excluding active compound was applied as a treatment control (TC). Plants were treated with the test compound solution in a laboratory spray chamber fitted with 8003 flat fan nozzles calibrated to deliver 187-200 L ha^−1 at 269 kPa. Plants were placed back in the growth chamber and evaluated for % visual injury compared to TC 7 days after treatment (DAT). The data presented in Table 3 indicate a percentage control, where 100% control indicates complete inhibition of growth.

Setaria italica (SETIT) = assay: Post-emergence herbicidal activity, SETIT; conditions: % visual injury compared to treatment control, 7 days after treatment
Protocol: as §1, §2, §3

[2] = test system: Echinochloa crus-galli (ECHCG); assay: Post-emergence herbicidal activity, ECHCG; conditions: % visual injury compared to treatment control, 7 days after treatment
Protocol: as §1, §2, §3

Kochia scoparia (KCHSC) = assay: Post-emergence herbicidal activity, KCHSC; conditions: % visual injury compared to treatment control, 7 days after treatment
Protocol: as §1, §2, §3

[3] = test system: Amaranthus retroflexus (AMARE); assay: Pre-emergence herbicidal activity, AMARE; conditions: % growth and germination inhibition compared to treatment control, 7 days after treatment
Protocol: Selected compounds of the invention were screened at 200 PPM against Amaranthus retroflexus (AMARE).
Accordingly, PPO susceptible weed seeds were planted in 5″×5″ pots by quadrant containing custom field soil mix (Sandy loam with 4.7% OM, pH 7.0) and covered with a fine layer of the same soil. Compounds were formulated in 25% Acetone, 1% Crop oil concentrate (COC-Agridex), 0.1% Tween-20, and 2.5% Ammonium sulphate (AMS). Three replicate pots were treated with each compound. Treatment consisting of the above formulation excluding active compound was applied as a treatment control (TC). Pots were treated with the test compound solution in a laboratory spray chamber fitted with 8003 flat fan nozzles calibrated to deliver 187-200 L ha-1 at 269 kPa. Compound was incorporated into the soil by simulating rainfall equivalent to 0.2 mm using the same track sprayer. Subsequently, pots were irrigated from the bottom until assessed for % growth and germination inhibition. Pots were placed back in the growth chamber and evaluated for % growth and germination inhibition compared to TC 7 days after treatment (DAT). Growth conditions are similar to the ones mentioned in POST emergence assay.
The data presented in Table 4 indicate a percentage control, where 100% control indicates complete inhibition of growth and germination.

| Compound | Post-emergence (100 ppm) AMARE, percentage control [1] | Post-emergence (100 ppm) SETIT, percentage control (Setaria italica (SETIT)) | Post-emergence (100 ppm) ECHCG, percentage control [2] | Post-emergence (100 ppm) KCHSC, percentage control (Kochia scoparia (KCHSC)) | AMARE pre-emergence (200 ppm), percentage control [3] |
| --- | --- | --- | --- | --- | --- |
| COC(=O)CCNC(=O)[C@@H](C)Sc1cc(-c2c(F)c(F)c(F)c(F)c2F)c(F)cc1Cl (single isomer, unassigned) [Compound 6] | 100% | 8% | 10% | 12% |  |
| C[C@H](Sc1cc(-c2c(F)c(F)c(F)c(F)c2F)c(F)cc1Cl)C(=O)NCCC(=O)O [Compound 7, (S)-3-(2-((4-chloro-2′,3′,4′,5′,6,6′-hexafluoro-[1,1′-biphenyl]-3-yl)thio)propanamido)propanoic acid] | 100% | 28% | 37% | 20% |  |
| C[C@@H](Sc1cc(-c2c(F)c(F)c(F)c(F)c2F)c(F)cc1Cl)C(=O)NCCC(=O)O [Compound 8, (R)-3-(2-((4-chloro-2′,3′,4′,5′,6,6′-hexafluoro-[1,1′-biphenyl]-3-yl)thio)propanamido)propanoic acid] | 100% | 23% | 28% | 23% |  |
| CN(C)C(=O)NS(=O)(=O)c1cc(-c2c(F)c(F)c(F)c(F)c2F)c(F)cc1Cl [Compound 16, 4-chloro-N-(dimethylcarbamoyl)-2′,3′,4′,5′,6,6′-hexafluoro-[1,1′-biphenyl]-3-sulfonamide] | 33% | 43% | 95% | 8% | 100% |
| CC(=O)NS(=O)(=O)c1cc(-c2c(F)c(F)c(F)c(F)c2F)c(F)cc1Cl [Compound 17, N-((4-chloro-2′,3′,4′,5′,6,6′-hexafluoro-[1,1′-biphenyl]-3-yl)sulfonyl)acetamide] | 88% | 100% | 100% | 13% | 100% |
| CCC(=O)NS(=O)(=O)c1cc(-c2c(F)c(F)c(F)c(F)c2F)c(F)cc1Cl [Compound 18, N-((4-chloro-2′,3′,4′,5′,6,6′-hexafluoro-[1,1′-biphenyl]-3-yl)sulfonyl)propionamide] | 100% | 100% | 100% | 23% | 100% |
| CCC(=O)NS(=O)(=O)c1cc(-c2c(F)cc(F)c(F)c2F)c(F)cc1Cl [Compound 26, N-((4-chloro-2′,3′,4′,6,6′-pentafluoro-[1,1′-biphenyl]-3-yl)sulfonyl)propionamide] | 100% | 100% | 100% | 15% | 100% |
